Drawing on PubChem BioAssay (NCI), this text covers TGI and GI50 for 18 compounds.

Test systems include SF-295 CNS; CCRF-CEM leukemia; SR leukemia; A498 renal; HS 578T breast; HL-60(TB) leukemia; HOP-62 NSCLC; MDA-MB-435; HCT-15 colon; COLO 205 colon; MOLT-4 leukemia; UACC-62 melanoma.
Common to all, as to experiment: NCI anticancer screen, dose series, 48 h

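96-well plates; 48 h exposure; 5 concentrations. Endpoints by linear interpolation between flanking doses. Not reached: highest tested concentration assigned. At the GI50, growth is halved. TGI marks complete inhibition of growth.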

Consider `CC(C)(C)OC(=O)NC(Cc1ccc(OCc2ccccc2)cn1)C(N)=O` (stereo unspecified), for which the TGI in the test on SF-295 CNS, with CCRF-CEM leukemia, in the test with SR leukemia, in the test on A498 renal, with HS 578T breast and with HL-60(TB) leukemia was over 100 µM throughout. For the same compound, the TGI in the test on HOP-62 NSCLC, in the test on MDA-MB-435, with HCT-15 colon and with COLO 205 colon was over 100 µM each time.
Take `N#CCCN(CCCN(C(=O)Nc1ccc(NC(=O)N(CCCN(CCC#N)C(N)=O)c2ccccc2)cc1)c1ccccc1)C(N)=O`: the TGI in the test with SF-295 CNS, in the test with CCRF-CEM leukemia, in the test with SR leukemia, with A498 renal, in the test with HS 578T breast and in the test on MOLT-4 leukemia was over 100 µM throughout. In addition, the TGI in the test with HL-60(TB) leukemia, in the test on HOP-62 NSCLC, with MDA-MB-435, with HCT-15 colon, in the test on COLO 205 colon and with UACC-62 melanoma was over 100 µM in each case.
Turning to `CN(C)c1cccc(/C=C(\C#N)c2ccccc2)c1`, the TGI in the test on SF-295 CNS is 15.1 µM; in the test with CCRF-CEM leukemia, over 37.3 µM; in the test with SR leukemia, over 8.15 µM; in the test with A498 renal it was 35.4 µM; with HS 578T breast, 2.79 µM; in the test on MOLT-4 leukemia, over 21.1 µM. Also, the TGI is 1.34 µM with HL-60(TB) leukemia; 8.65 µM in the test with HOP-62 NSCLC; 0.18 µM in the test on MDA-MB-435; over 58.4 µM with HCT-15 colon; 5.41 µM in the test with COLO 205 colon; over 100 µM in the test with UACC-62 melanoma.
For the compound `COC(=O)/C=C/c1ccc2c(c1)[C@H](C(=O)OC)[C@@H](c1ccc(O)cc1)O2`, the TGI is over 100 µM in the test on SF-295 CNS; 78 µM in the test with CCRF-CEM leukemia; 45.8 µM in the test with SR leukemia; over 100 µM in the test on A498 renal; 96.4 µM with HS 578T breast; 96.5 µM with MOLT-4 leukemia. In addition, the TGI in the test with HL-60(TB) leukemia is 67.6 µM; with HOP-62 NSCLC, over 100 µM; in the test with MDA-MB-435 it was 16.2 µM; with HCT-15 colon it was 47.3 µM; with COLO 205 colon it was 89.4 µM; in the test with UACC-62 melanoma, over 100 µM.
With `Oc1ccccc1-c1n[nH]c(-c2ccccc2O)n1`, the TGI with SF-295 CNS, with CCRF-CEM leukemia, in the test on SR leukemia, in the test on A498 renal, with HS 578T breast and in the test on MOLT-4 leukemia was over 100 µM in each case. Also, the TGI in the test with HL-60(TB) leukemia is over 23.7 µM; in the test on HOP-62 NSCLC, over 100 µM; with MDA-MB-435, over 100 µM; with HCT-15 colon, over 33.6 µM; in the test on COLO 205 colon it was over 85.8 µM; in the test with UACC-62 melanoma, over 100 µM.
With `O=C(/N=C1/OC(CN2CCOCC2)CN1C(=O)Nc1ccccc1)Nc1ccccc1` (stereo unspecified), the TGI in the test with SF-295 CNS, with CCRF-CEM leukemia, in the test with SR leukemia, in the test on A498 renal, in the test with HS 578T breast and in the test on MOLT-4 leukemia was over 100 µM each time. Further, the TGI in the test with HL-60(TB) leukemia, in the test with HOP-62 NSCLC, in the test with MDA-MB-435, in the test with HCT-15 colon, in the test on COLO 205 colon and in the test with UACC-62 melanoma was over 100 µM throughout.
As for `COC(=O)/C=C/C(=O)Nc1cc(Cl)c(Cl)cc1CC(=O)N(C)[C@H]1CCCC[C@@H]1N1CCCC1`, the TGI with SF-295 CNS was 36.2 µM; in the test with CCRF-CEM leukemia, over 100 µM; in the test with SR leukemia, over 28.3 µM; with A498 renal, 28.9 µM; in the test on HS 578T breast, 36 µM; in the test with MOLT-4 leukemia, 13.8 µM. The TGI with HL-60(TB) leukemia is 5.33 µM; with HOP-62 NSCLC it was 33.3 µM; in the test with MDA-MB-435 it was over 39.3 µM; in the test on HCT-15 colon it was 28 µM; in the test on COLO 205 colon, 7.21 µM; with UACC-62 melanoma it was 28.4 µM.
Regarding `Cc1ccc(C2=Nn3c(nc4sc5c(c4c3=O)CCCC5)SC2)cc1`, the TGI in the test with SF-295 CNS, in the test with CCRF-CEM leukemia, in the test with SR leukemia, in the test on A498 renal, in the test on HS 578T breast and with MOLT-4 leukemia was over 100 µM each time. The TGI with HL-60(TB) leukemia, in the test on HOP-62 NSCLC, in the test on MDA-MB-435, in the test with HCT-15 colon, with COLO 205 colon and with UACC-62 melanoma was over 100 µM in each case.
On to `COc1ccc(C(c2cc(OC)c(OC)c(OC)c2)N2C(=O)CCC2C(=O)O)cc1` (stereo unspecified), for which the TGI with SF-295 CNS was 66.4 µM; in the test on CCRF-CEM leukemia it was over 100 µM; in the test with SR leukemia, over 100 µM; in the test on A498 renal, over 100 µM; with HS 578T breast, over 100 µM; with MOLT-4 leukemia, over 100 µM. Further, the TGI with HL-60(TB) leukemia was over 100 µM; with HOP-62 NSCLC, over 100 µM; with MDA-MB-435, 48.6 µM; in the test on HCT-15 colon, over 100 µM; with COLO 205 colon, over 100 µM; in the test with UACC-62 melanoma, over 100 µM.
Take `CNC(=O)OCc1nc(N=[N+]=[N-])n(C)c1COC(=O)NC`: the TGI was over 100 µM in the test with SF-295 CNS; over 100 µM in the test on CCRF-CEM leukemia; 86 µM in the test with SR leukemia; over 100 µM in the test with A498 renal; over 100 µM in the test on HS 578T breast; 88.3 µM in the test with MOLT-4 leukemia. Further, the TGI in the test with HL-60(TB) leukemia is 48.9 µM; in the test with HOP-62 NSCLC it was over 100 µM; in the test on MDA-MB-435, over 100 µM; in the test with HCT-15 colon, over 100 µM; in the test on COLO 205 colon it was over 100 µM.
For the compound `Nc1ncnc2c1ncn2[C@@H]1C[C@H](NO)[C@@H](O)[C@H]1O`, the TGI with SF-295 CNS, in the test with CCRF-CEM leukemia, with SR leukemia, in the test with A498 renal, in the test with HS 578T breast and with MOLT-4 leukemia was over 100 µM in each case. Moreover, the TGI in the test on HOP-62 NSCLC, with MDA-MB-435, in the test with HCT-15 colon, in the test on COLO 205 colon and in the test with UACC-62 melanoma was over 100 µM in each case.
In the case of `CC(C(=O)O)C1Nc2ccccc2NC1=O` (stereo unspecified), the TGI in the test with SF-295 CNS, in the test on CCRF-CEM leukemia, in the test on SR leukemia, with A498 renal, in the test on HS 578T breast and in the test on MOLT-4 leukemia was over 100 µM each time. In addition, the TGI in the test with HL-60(TB) leukemia, with MDA-MB-435, in the test on HCT-15 colon, with COLO 205 colon and in the test with UACC-62 melanoma was over 100 µM each time.
For `N#CCN1CCN(CC#N)CCN(CC#N)CCN(CC#N)CC1`, the TGI with SF-295 CNS, in the test on CCRF-CEM leukemia, in the test on SR leukemia, in the test with A498 renal, in the test on HS 578T breast and with MOLT-4 leukemia was over 100 µM in each case. The TGI in the test on HL-60(TB) leukemia, in the test on HOP-62 NSCLC, in the test on MDA-MB-435, with COLO 205 colon and in the test with UACC-62 melanoma was over 100 µM each time.
As for `Cn1c(-c2cccs2)cc(-c2ccsc2)c1-c1cccs1`, the TGI with SF-295 CNS, in the test with CCRF-CEM leukemia, in the test on SR leukemia, in the test with A498 renal, in the test with HS 578T breast and in the test with MOLT-4 leukemia was over 100 µM in each case. The TGI is over 100 µM in the test on HOP-62 NSCLC; over 100 µM in the test on MDA-MB-435; over 100 µM in the test with HCT-15 colon; 46.5 µM in the test on COLO 205 colon; over 100 µM in the test on UACC-62 melanoma.
Consider `COC(=O)/C=C1/OC(c2ccc(C)cc2C)=CC1=O`, for which the TGI was over 100 µM in the test with CCRF-CEM leukemia; over 100 µM in the test on SR leukemia; 42.3 µM in the test with A498 renal; 81.7 µM in the test with HS 578T breast; over 100 µM in the test with MOLT-4 leukemia; over 100 µM with HL-60(TB) leukemia. Also, the TGI with HOP-62 NSCLC turned out to be 61.2 µM; with MDA-MB-435 it was 30.1 µM; with HCT-15 colon it was 29.3 µM; with COLO 205 colon, 30.2 µM; in the test with UACC-62 melanoma, 26.5 µM.
In the case of `CN(C)CCN=C1Nc2ccccc2C(=O)N2CSCC12` (stereo unspecified), the TGI in the test on SF-295 CNS, in the test on CCRF-CEM leukemia, in the test on SR leukemia, with A498 renal, in the test with HS 578T breast and in the test with MOLT-4 leukemia was over 100 µM throughout. For the same compound, the TGI with HOP-62 NSCLC, with MDA-MB-435, in the test on HCT-15 colon, in the test with COLO 205 colon and with UACC-62 melanoma was over 100 µM throughout.
As to `COCCNC1CCC(=O)c2[nH]c3ccccc3c21` (stereo unspecified), the TGI with SF-295 CNS, in the test with CCRF-CEM leukemia, in the test on SR leukemia, with A498 renal, with HS 578T breast and with MOLT-4 leukemia was over 100 µM throughout. For the same compound, the TGI with HL-60(TB) leukemia, in the test on HOP-62 NSCLC, in the test with MDA-MB-435, in the test with HCT-15 colon and in the test on COLO 205 colon was over 100 µM in each case.
For `C=C1C(=O)OC2/C=C(\C)CC/C=C(\C)CC(OC(=O)/C(=C/CO)CO)[C@@H]12` (stereo partly specified), the TGI in the test with SF-295 CNS is over 100 µM; in the test on CCRF-CEM leukemia, 6.75 µM; with SR leukemia, over 23.8 µM; in the test on A498 renal it was 34.6 µM; with HS 578T breast, 63.4 µM; in the test with MOLT-4 leukemia, 5.55 µM. The TGI with HL-60(TB) leukemia is 12.6 µM; with MDA-MB-435 it was 19 µM; in the test on HCT-15 colon it was 29.7 µM; in the test with COLO 205 colon, 5.4 µM; in the test on UACC-62 melanoma, 34.2 µM. Besides, in the test on MOLT-4 leukemia, the GI50 is 1.92 µM.
